Marks after values point to notes of the source that are not given here.
Legend:
[1] = Growth performance of early weaned pigs, SMBS titration (Example 3); format: in vivo; conditions: in words
From the text: A total of 1,296 weanling pigs were used to determine the impact of […] on growth performance in 19 to 20 day old pigs. The ratio of same-sow source pens was equalized within treatments. The number of barrows and gilts was balanced within the pen (either 13 […] or 14 […] per pen). Upon arrival weanling pigs were sorted to pens (48 pens with 27 pigs per pen) and weighed as a complete pen of pigs. Pens within block were randomly assigned to one of 4 dietary treatments (1 control and 3 experimental diets; Table 6) in a randomized complete block design. Diets containing testing products were made by mixing the testing products into the basal diet (Table 7).
Pig weights were taken at placement and at the end of each diet phase (day 9 and 23). Feed weights were collected daily and the data was used to calculate ADG, ADFI and F/G for both diet phases and for the entire experimental period (23 days). Blood samples were on day 0 and 23 of the study from one barrow in each pen. Each pen was selected at the beginning of the study, identified with an ear tag, and sampled again at the end of the study. 8.5 mL blood was collected and allowed to clot on ice for at least 1.5 hr and centrifuged at 2,000×g for 13 min (4° C.). Fecal scores for each pen were collected on d 3, 5, 7, and 10 using the following scale: 0=none; 1=mild; 2=substantial; 3=severe (Citation 1: Marquardt et al., 1999).

[2] = Post-weaning pig growth performance, SMBS vs SMBS + formulated yeast, 2-phase feeding (Example 7); format: in vivo
From the text: A total of 972 pigs were used to determine the effect of sodium metabisulfite (SMBS) or SMBS plus formulated yeast on weanling pig growth performance. Upon arrival pigs were sorted to pens with 27 pigs per pen. Pigs were weighed on pen basis. Pens within block were randomly assigned to one of 3 dietary treatments (1 control and 2 experimental diets; Table 17) in a randomized complete block design. This will result in 12 pens for each treatment for evaluation of growth performance, fecal scores, and health status.
This experiment was conducted for approximately 22 days in a 2-phase feeding program (Table 18) immediately after weaning. Feed was provided through the FeedLogic® system allowing collection of feed intake data by pen.

O=S([O-])S(=O)(=O)[O-].[Na+].[Na+] [SMBS, sodium metabisulfite]
ADG and F/G ([1]; increasing levels, both phases of the study): linear (P<0.05) improvements | ADG ([1]; titrating from 0 to 10 lb/ton): Linear increase | F/G ([1]; titrating from 0 to 10 lb/ton): Linear decrease | ADFI ([2]; Phase 1 + 2, 22 days): 0.78^cd lb/day | ADG ([2]; Phase 1 + 2, 22 days): 0.54 lb/day | ADG, change versus Control ([2]; Phase 1 + 2, 22 days): (+10.2%)^b | F:G ([2]; Phase 1 + 2, 22 days): 1.45 | F:G, change versus Control ([2]; Phase 1 + 2, 22 days): (−6.5%)^b | Mortality ([2]; Phase 1 + 2, 22 days): 0.6% | Total removal ([2]; Phase 1 + 2, 22 days): 2.2% | ADFI ([2]; Phase 1, 8 days): 0.46 lb/day | ADG ([2]; Phase 1, 8 days): 0.16^d lb/day | G:F ([2]; Phase 1, 8 days): 0.35^d | ADFI ([2]; Phase 2, 14 days): 0.96^ab lb/day | ADG ([2]; Phase 2, 14 days): 0.76^b lb/day | F:G ([2]; Phase 2, 14 days): 1.27^b | BW end of Phase 1 ([2]; end of Phase 1, 8 days): 13.4 lb | BW end of Phase 2 ([2]; end of Phase 2, 14 days): 24.1^b lb | Start BW ([2]; start of experiment (baseline)): 11.8 lb

Reference: patent US20190116833A1, “FEED ADDITIVE COMPOSITIONS” (priority 2017, published 2019)
